According to PubChem BioAssay (NCI):
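Compound exposure: 48 hours, 5 concentrations, 96-well plates. TGI: concentration producing complete growth inhibition.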

Key:
Assay in all cases: NCI tumour cell line growth inhibition, 48 h
MOLT-4 leukemia = system: MOLT-4 leukemia
UO-31 renal = system: UO-31 renal
NCI/ADR-RES ovarian = system: NCI/ADR-RES ovarian
HOP-62 NSCLC = system: HOP-62 NSCLC
HT29 colon = system: HT29 colon
KM12 colon = system: KM12 colon
A549 NSCLC = system: A549 NSCLC
SF-539 CNS = system: SF-539 CNS
OVCAR-5 ovarian = system: OVCAR-5 ovarian
NCI-H23 lung = system: NCI-H23 lung
SK-MEL-2 melanoma = system: SK-MEL-2 melanoma
SN12C renal = system: SN12C renal
786-0 renal = system: 786-0 renal
SK-MEL-28 melanoma = system: SK-MEL-28 melanoma
T-47D breast = system: T-47D breast
DU-145 prostate = system: DU-145 prostate
HCT-116 colon = system: HCT-116 colon
RPMI-8226 leukemia = system: RPMI-8226 leukemia
MDA-N = system: MDA-N
NCI-H460 lung = system: NCI-H460 lung
PC-3 prostate = system: PC-3 prostate
LOX IMVI melanoma = system: LOX IMVI melanoma
SK-OV-3 ovarian = system: SK-OV-3 ovarian
BT-549 breast = system: BT-549 breast
RXF 393 renal = system: RXF 393 renal
HS 578T breast = system: HS 578T breast
ACHN renal = system: ACHN renal
HOP-92 NSCLC = system: HOP-92 NSCLC
HCT-15 colon = system: HCT-15 colon
SW-620 colon = system: SW-620 colon
SK-MEL-5 melanoma = system: SK-MEL-5 melanoma
SF-268 CNS = system: SF-268 CNS
M14 melanoma = system: M14 melanoma
NCI-H522 lung = system: NCI-H522 lung
MDA-MB-231 breast = system: MDA-MB-231 breast
SF-295 CNS = system: SF-295 CNS
UACC-62 melanoma = system: UACC-62 melanoma
SNB-19 CNS = system: SNB-19 CNS
K-562 leukemia = system: K-562 leukemia
COLO 205 colon = system: COLO 205 colon
MCF7 breast = system: MCF7 breast
HL-60(TB) leukemia = system: HL-60(TB) leukemia
UACC-257 melanoma = system: UACC-257 melanoma
U251 CNS = system: U251 CNS
OVCAR-4 ovarian = system: OVCAR-4 ovarian
TK-10 renal = system: TK-10 renal
OVCAR-8 ovarian = system: OVCAR-8 ovarian
CCRF-CEM leukemia = system: CCRF-CEM leukemia
IGROV1 ovarian = system: IGROV1 ovarian
SNB-75 CNS = system: SNB-75 CNS
MALME-3M melanoma = system: MALME-3M melanoma
A498 renal = system: A498 renal
HCC-2998 colon = system: HCC-2998 colon
OVCAR-3 ovarian = system: OVCAR-3 ovarian
SR leukemia = system: SR leukemia
CAKI-1 renal = system: CAKI-1 renal
EKVX NSCLC = system: EKVX NSCLC
MDA-MB-435 = system: MDA-MB-435
NCI-H226 lung = system: NCI-H226 lung

With `Cc1ccc(S(=O)(=O)NC(=O)Nc2ccc(C(=O)O)cc2)cc1` the TGI (MOLT-4 leukemia) was > 100 µM, the TGI (UO-31 renal) was > 100 µM and the TGI (NCI/ADR-RES ovarian) was > 100 µM. The TGI (HOP-62 NSCLC) was > 100 µM, the TGI (HT29 colon) was > 100 µM and the TGI (KM12 colon) was > 100 µM. For the same molecule, the TGI (A549 NSCLC) was > 100 µM, the TGI (SF-539 CNS) was > 100 µM and the TGI (OVCAR-5 ovarian) was > 100 µM. The TGI (NCI-H23 lung) was > 100 µM, the TGI (SK-MEL-2 melanoma) was > 100 µM and the TGI (SN12C renal) was > 100 µM. The TGI (786-0 renal) was > 100 µM, the TGI (SK-MEL-28 melanoma) was > 100 µM and the TGI (T-47D breast) was > 100 µM. For the same molecule, the TGI (DU-145 prostate) was > 100 µM, the TGI (HCT-116 colon) was > 100 µM and the TGI (RPMI-8226 leukemia) was > 100 µM. The TGI (MDA-N) was > 100 µM, the TGI (NCI-H460 lung) was > 100 µM and the TGI (PC-3 prostate) was > 100 µM. The TGI (LOX IMVI melanoma) was > 100 µM, the TGI (SK-OV-3 ovarian) was > 100 µM and the TGI (BT-549 breast) was > 100 µM. The TGI (RXF 393 renal) was > 100 µM, the TGI (HS 578T breast) was > 100 µM and the TGI (ACHN renal) was > 100 µM. For the same molecule, the TGI (HOP-92 NSCLC) was > 100 µM, the TGI (HCT-15 colon) was > 100 µM and the TGI (SW-620 colon) was > 100 µM. For the same molecule, the TGI (SK-MEL-5 melanoma) was > 100 µM, the TGI (SF-268 CNS) was > 100 µM and the TGI (M14 melanoma) was > 100 µM. For the same molecule, the TGI (NCI-H522 lung) was > 100 µM, the TGI (MDA-MB-231 breast) was > 100 µM and the TGI (SF-295 CNS) was > 100 µM. The TGI (UACC-62 melanoma) was > 100 µM, the TGI (SNB-19 CNS) was > 100 µM and the TGI (K-562 leukemia) was > 100 µM. The TGI (COLO 205 colon) was > 100 µM, the TGI (MCF7 breast) was > 100 µM and the TGI (HL-60(TB) leukemia) was > 100 µM. The TGI (UACC-257 melanoma) was > 100 µM, the TGI (U251 CNS) was > 100 µM and the TGI (OVCAR-4 ovarian) was > 100 µM. The TGI (TK-10 renal) was > 100 µM, the TGI (OVCAR-8 ovarian) was > 100 µM and the TGI (CCRF-CEM leukemia) was > 100 µM. The TGI (IGROV1 ovarian) was > 100 µM, the TGI (SNB-75 CNS) was > 100 µM and the TGI (MALME-3M melanoma) was > 100 µM.
For `CN(C)c1cccc2c(S(=O)(=O)NCCN)cccc12`, the TGI (MOLT-4 leukemia) was > 100 µM, the TGI (UO-31 renal) was > 100 µM and the TGI (NCI/ADR-RES ovarian) was > 100 µM. For the same molecule, the TGI (A498 renal) was 69.8 µM, the TGI (HOP-62 NSCLC) was > 100 µM and the TGI (HT29 colon) was > 100 µM. For the same molecule, the TGI (HCC-2998 colon) was > 100 µM, the TGI (KM12 colon) was > 100 µM and the TGI (A549 NSCLC) was > 100 µM. The TGI (SF-539 CNS) was > 100 µM, the TGI (OVCAR-5 ovarian) was > 100 µM and the TGI (NCI-H23 lung) was > 100 µM. The TGI (SK-MEL-2 melanoma) was > 100 µM, the TGI (SN12C renal) was > 100 µM and the TGI (786-0 renal) was > 100 µM. The TGI (SK-MEL-28 melanoma) was > 100 µM, the TGI (T-47D breast) was > 100 µM and the TGI (DU-145 prostate) was > 100 µM. The TGI (HCT-116 colon) was > 100 µM, the TGI (OVCAR-3 ovarian) was > 100 µM and the TGI (MDA-N) was > 100 µM. For the same molecule, the TGI (NCI-H460 lung) was > 100 µM, the TGI (PC-3 prostate) was > 100 µM and the TGI (LOX IMVI melanoma) was > 100 µM. The TGI (SK-OV-3 ovarian) was > 100 µM, the TGI (RXF 393 renal) was > 100 µM and the TGI (HS 578T breast) was > 100 µM. The TGI (ACHN renal) was > 100 µM, the TGI (HOP-92 NSCLC) was > 100 µM and the TGI (HCT-15 colon) was > 100 µM. The TGI (SW-620 colon) was > 100 µM, the TGI (SK-MEL-5 melanoma) was > 100 µM and the TGI (SR leukemia) was > 100 µM. For the same molecule, the TGI (SF-268 CNS) was > 100 µM, the TGI (M14 melanoma) was > 100 µM and the TGI (NCI-H522 lung) was > 100 µM. The TGI (MDA-MB-231 breast) was > 100 µM, the TGI (SF-295 CNS) was > 100 µM and the TGI (UACC-62 melanoma) was > 100 µM. For the same molecule, the TGI (SNB-19 CNS) was > 100 µM, the TGI (K-562 leukemia) was > 100 µM and the TGI (COLO 205 colon) was > 100 µM. The TGI (CAKI-1 renal) was > 100 µM, the TGI (EKVX NSCLC) was > 100 µM and the TGI (HL-60(TB) leukemia) was > 100 µM. The TGI (UACC-257 melanoma) was > 100 µM, the TGI (U251 CNS) was > 100 µM and the TGI (MDA-MB-435) was > 100 µM. For the same molecule, the TGI (OVCAR-4 ovarian) was > 100 µM, the TGI (NCI-H226 lung) was > 100 µM and the TGI (CCRF-CEM leukemia) was > 100 µM. For the same molecule, the TGI (IGROV1 ovarian) was 91.9 µM, the TGI (SNB-75 CNS) was 64.1 µM and the TGI (MALME-3M melanoma) was > 100 µM.
